The text below walks through data of patent US20260042764A1, “COMPOSITIONS AND METHODS FOR INHIBITION OF KRAS” (TheRas, Inc., priority 2022, published 2026).

Test [1] deals with T1, Avi-KRAS G12C (2-169) GTP/RAF1 RBD-3xFLAG (51-131) (Homo sapiens, UniProt P01116, G12C).
T1 construct: Avi-KRAS G12C (2-169)
In words: Raf1-KRAS G12C-GTP disruption HTRF assay (Biological Example 3). In kind it is binding. To be noted: KRAS G12C, GTP-loaded. Summed up: (§1)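 HTRF PPI read-out (ex 320 nm, em 615 nm) after 1 h RT incubation with shaking; data as % activity vs DMSO (100%), IC50 from curve fit. Complex 50 nM, RBD reagent 75 nM; compound 30-0.005 μM, 3-fold.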
In general terms: In TR-FRET formats the signal depends on donor and acceptor labels being close together.

The next test has as its system GP2d cells (KRAS G12D). The experiment in a line: Cell-based pERK HTRF assay in GP2d cell (Biological Example 2). The conditions noted are these: GP2d, GP2d (KRAS G12D) cells. Summed up: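 Phospho-ERK in lysed cells was detected by HTRF using Eu cryptate and d2 antibodies, read between 4 and 24 h at room temperature. Prior to lysis, KRAS G12D GP2d cells, seeded the day before in DMEM with 10% FBS, were exposed to compounds for 60 min. Compounds were tested as 9-point half-log curves from 1 μM or 100 nM top, with 0.25% DMSO.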

For test [2], the target named is T2, Avi-KRAS WT (2-169) GTP/RAF1 RBD-3xFLAG (51-131) (Homo sapiens, UniProt P01116).
T2 construct: Avi-KRAS WT (2-169)
In words: Raf1-KRAS WT-GTP disruption HTRF assay (Biological Example 3). To be noted: KRAS WT, GTP-loaded. It is filed as binding. A digest of the protocol:
as §1

Another test relates to SW620 cells (KRAS G12V). In words: Cell-based pERK HTRF assay in SW620 cell (Biological Example 4). The conditions noted are these: Homo sapiens, SW-620, SW620 (KRAS G12V) cells. A digest of the protocol:
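SW620 seeded in RPMI/10% FBS, next day dosed 4 h (top 1 μM, half-log, 9 pts, 0.25% DMSO). Lysed, pERK by d2/Eu cryptate HTRF, 4–24 h RT, 615 nm read.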

Test [3] concerns the target T3, Avi-KRAS G12V (2-169) GTP/RAF1 RBD-3xFLAG (51-131) (Homo sapiens, UniProt P01116, G12V).
T3 construct: Avi-KRAS G12V (2-169)
The experiment in a line: Raf1-KRAS G12V-GTP disruption HTRF assay (Biological Example 3). It is filed as binding. The conditions noted are these: KRAS G12V, GTP-loaded. Summed up: as §1

Test [4] concerns the target T4, Avi-KRAS G12D (2-169) GTP/RAF1 RBD-3xFLAG (51-131) (Homo sapiens, UniProt P01116, G12D).
T4 construct: Avi-KRAS G12D (2-169)
The experiment in a line: Raf1-KRAS G12D-GTP disruption HTRF assay (Biological Example 3). It is filed as binding. The conditions noted are these: KRAS G12D, GTP-loaded. Summed up: as §1

T4 sequence (P01116 2-169 isoform P01116-2 G12D): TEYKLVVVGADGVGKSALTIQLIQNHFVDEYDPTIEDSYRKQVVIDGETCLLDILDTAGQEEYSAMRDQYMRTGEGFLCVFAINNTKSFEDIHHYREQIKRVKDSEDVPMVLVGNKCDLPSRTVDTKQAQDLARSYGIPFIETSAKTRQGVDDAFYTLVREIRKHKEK
T1 sequence (P01116 2-169 isoform P01116-2 G12C): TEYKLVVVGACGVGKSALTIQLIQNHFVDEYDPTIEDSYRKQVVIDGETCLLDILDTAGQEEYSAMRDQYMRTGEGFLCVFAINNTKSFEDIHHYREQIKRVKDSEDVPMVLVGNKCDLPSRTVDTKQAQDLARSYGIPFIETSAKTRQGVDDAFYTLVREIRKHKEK
T2 sequence (P01116 2-169 isoform P01116-2): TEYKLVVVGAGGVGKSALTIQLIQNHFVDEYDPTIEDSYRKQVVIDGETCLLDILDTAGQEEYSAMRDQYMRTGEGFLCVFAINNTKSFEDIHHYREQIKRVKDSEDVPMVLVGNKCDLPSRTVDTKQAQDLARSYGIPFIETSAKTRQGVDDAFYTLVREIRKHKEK
T3 sequence (P01116 2-169 isoform P01116-2 G12V): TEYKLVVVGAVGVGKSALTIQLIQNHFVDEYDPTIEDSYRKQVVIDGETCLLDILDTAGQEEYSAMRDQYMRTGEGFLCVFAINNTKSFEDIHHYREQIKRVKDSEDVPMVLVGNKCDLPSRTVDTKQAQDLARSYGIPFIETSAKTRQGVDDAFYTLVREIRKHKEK

As usually defined, the IC50 is the midpoint of a concentration-inhibition curve. Higher therefore signals weaker potency in that assay. In the case of `CCN(c1nc(OC[C@@]23CCCN2C[C@H](F)C3)nc2c(F)c(-c3ccc(F)c4sc(N)c(C#N)c34)c(C(F)(F)F)cc12)[C@H]1C[C@H](COC)N(C(=O)C2CC2(F)F)C1` (stereo partly drawn) [Compound 861], the half-inhibitory concentration (IC50) in test [1] is 100 to 1000 nM; in the test on GP2d cells (KRAS G12D), < 100 nM; in test [2], 100 to 1000 nM; with SW620 cells (KRAS G12V), < 100 nM; in test [3] it was 100 to 1000 nM; in test [4], 100 to 1000 nM.

Take `CCN(c1nc(OC[C@@]23CCCN2C[C@H](F)C3)nc2c(F)c(-c3ccc(F)c4sc(N)c(C#N)c34)c(C(F)(F)F)cc12)[C@H]1C[C@H](COC)N(C(=O)C2C[C@@H]2F)C1` (stereo partly drawn) [Compound 870]: the IC50 in test [1] was 100 to 1000 nM; in the test on GP2d cells (KRAS G12D), < 100 nM; in test [2], 100 to 1000 nM; in the test with SW620 cells (KRAS G12V), < 100 nM; in test [3], 100 to 1000 nM; in test [4], 100 to 1000 nM.

As for `CCN(c1nc(OC[C@@H]2C[C@@H](OC)CN2C)nc2c(F)c(-c3ccc(F)c4sc(N)c(C#N)c34)c(C(F)(F)F)cc12)[C@H]1CCN(C(=O)OC)C1` [Compound 871], the IC50 is 1000 to 10000 nM in test [1]; < 100 nM in the test on GP2d cells (KRAS G12D); 1000 to 10000 nM in test [2]; < 100 nM in the test with SW620 cells (KRAS G12V); 1000 to 10000 nM in test [3]; 100 to 1000 nM in test [4].

For `CCN(c1nc(OC[C@@]23CCCN2C[C@H](F)C3)nc2c(F)c(-c3ccc(F)c4sc(N)c(C#N)c34)c(C(F)(F)F)cc12)[C@H]1CCN(C(=O)C2C[C@H]2F)[C@@H]1C` (stereo partly drawn) [Compound 874], the IC50 is 100 to 1000 nM in test [1]; < 100 nM in the test with GP2d cells (KRAS G12D); 100 to 1000 nM in test [2]; < 100 nM in the test with SW620 cells (KRAS G12V); 100 to 1000 nM in test [3]; 100 to 1000 nM in test [4].

Consider `CCN(c1nc(OC[C@@]23CCCN2C[C@H](F)C3)nc2c(F)c(-c3ccc(F)c4sc(N)c(C#N)c34)c(C(F)(F)F)cc12)[C@H]1C[C@H](COC)N(C(=O)N2CC(F)C2)C1` [Compound 875], for which the half-maximal inhibitory concentration (IC50) was 100 to 1000 nM in test [1]; < 100 nM in the test on GP2d cells (KRAS G12D); 1000 to 10000 nM in test [2]; < 100 nM in the test on SW620 cells (KRAS G12V); 100 to 1000 nM in test [3]; 1000 to 10000 nM in test [4].

As to `CCN(c1nc(OC[C@@]23CCCN2C[C@H](F)C3)nc2c(F)c(-c3ccc(F)c4sc(N)c(C#N)c34)c(C(F)(F)F)cc12)[C@H]1C[C@@H](C)N(C(=O)C2CC2(F)F)C1` (stereo partly drawn) [Compound 877], the IC50 is 1000 to 10000 nM in test [1]; < 100 nM in the test with GP2d cells (KRAS G12D); 1000 to 10000 nM in test [2]; < 100 nM in the test with SW620 cells (KRAS G12V); 1000 to 10000 nM in test [3]; 100 to 1000 nM in test [4].

Consider `CCN(c1nc(OC[C@@]23CCCN2C[C@H](F)C3)nc2c(F)c(-c3ccc(F)c4sc(N)c(C#N)c34)c(C(F)(F)F)cc12)[C@H]1C[C@H](C)N(C(=O)C2CC2(F)F)C1` (stereo partly drawn) [Compound 881], for which the half-maximal inhibitory concentration (IC50) in test [1] was 100 to 1000 nM; in the test on GP2d cells (KRAS G12D) it was < 100 nM; in test [2], 100 to 1000 nM; in the test with SW620 cells (KRAS G12V), < 100 nM; in test [3], 100 to 1000 nM; in test [4], 100 to 1000 nM.

Regarding `CCN(c1nc(OC[C@@]23CCCN2C[C@H](F)C3)nc2c(F)c(-c3ccc(F)c4sc(N)c(C#N)c34)c(C(F)(F)F)cc12)[C@H]1CCN(C(=O)C2C[C@@H]2F)[C@@H]1C` (stereo partly drawn) [Compound 883], the half-inhibitory concentration (IC50) was 100 to 1000 nM in test [1]; < 100 nM in the test with GP2d cells (KRAS G12D); 100 to 1000 nM in test [2]; < 100 nM in the test on SW620 cells (KRAS G12V); 100 to 1000 nM in test [3]; 100 to 1000 nM in test [4].

`CCN(c1nc(OC[C@@]23CCCN2C[C@H](F)C3)nc2c(F)c(-c3ccc(F)c4sc(N)c(C#N)c34)c(C(F)(F)F)cc12)[C@H]1C[C@H](C)N(C(=O)C2C[C@H]2F)C1` (stereo partly drawn) [Compound 884]: the half-maximal inhibitory concentration (IC50) in test [1] was ≤ 100 nM; with GP2d cells (KRAS G12D) it was < 100 nM; in test [2] it was 100 to 1000 nM; with SW620 cells (KRAS G12V), < 100 nM; in test [3], ≤ 100 nM; in test [4], 100 to 1000 nM.
